Measurements taken from patent publication US6271239A, “Delta opioid receptor-selective benzylidene-substituted morphinans” (Regents of the University of Minnesota, priority 1995, dated 2001).
Square brackets hold non-standard residues; d marks the D form. Peptide text beside a SMILES is read from it. * marks the point of attachment. Tyr(Nα,Nα-allyl2) = C=CCN(CC=C)[C@@H](Cc1ccc(O)cc1)C(=O)*; Aib = CC(C)(N)C(=O)O

Legend:
μ opioid receptor = molecular target: T1, μ opioid receptor (Mus musculus, UniProt P42866); assay: Mouse tail flick antinociception, antagonism of mu agonist; assay type: in vivo; settings: BNTX 6.25 pmol/i.c.v./mouse
T1 construct: from tissue; host or cells: live mouse (BNTX i.c.v.)
T1 sequence (P42866 whole entry): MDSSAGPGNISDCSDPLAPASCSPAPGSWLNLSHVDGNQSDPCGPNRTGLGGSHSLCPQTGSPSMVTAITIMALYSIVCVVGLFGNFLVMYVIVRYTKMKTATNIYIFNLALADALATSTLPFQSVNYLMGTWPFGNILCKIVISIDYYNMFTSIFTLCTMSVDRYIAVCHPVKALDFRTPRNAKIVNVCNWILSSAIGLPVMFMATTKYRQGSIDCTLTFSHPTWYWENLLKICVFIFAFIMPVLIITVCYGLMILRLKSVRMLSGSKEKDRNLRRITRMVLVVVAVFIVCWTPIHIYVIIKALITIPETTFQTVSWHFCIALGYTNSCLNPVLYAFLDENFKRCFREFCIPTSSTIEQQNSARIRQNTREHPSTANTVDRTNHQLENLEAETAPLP
Description: (§1) The antagonist effect of BNTX on antinociception was evaluated in mice using the tail flick assay, in accord with the procedure of A. E. Takemor, et al., J. Pharmacol. Exp. Ther., 243, 91 (1987). At least three groups of ten mice were used to generate dose-response curves. A mouse was regarded as positive for antinociception if the latency to flick its tail was more than the control latency plus 3 S.D. of the mean reaction time of the group. The reaction times were determined at the peak time for antinociception after administration of various agonists. Intra-cerebroventricular (i.c.v.) injections were made in a volume of 5 μl by the method of T. J. Haley et al., Br. J. Pharmacol., 12, 12 (1957).
(§2) On Table III, the potencies are expressed as ED50 ratios, which represent the ED50 of the standard agonist administered subcutaneously in the presence of BNTX (6.25 pmoL/i.c.v./mouse), divided by the ED50 of the standard agonist.

δ2 opioid receptor = molecular target: T2, δ2 opioid receptor (Mus musculus, UniProt P32300); assay: Mouse tail flick antinociception, antagonism of DSLET; assay type: in vivo; settings: BNTX 6.25 pmol/i.c.v./mouse
T2 construct: from tissue; host or cells: live mouse (BNTX i.c.v.)
T2 sequence (P32300 whole entry): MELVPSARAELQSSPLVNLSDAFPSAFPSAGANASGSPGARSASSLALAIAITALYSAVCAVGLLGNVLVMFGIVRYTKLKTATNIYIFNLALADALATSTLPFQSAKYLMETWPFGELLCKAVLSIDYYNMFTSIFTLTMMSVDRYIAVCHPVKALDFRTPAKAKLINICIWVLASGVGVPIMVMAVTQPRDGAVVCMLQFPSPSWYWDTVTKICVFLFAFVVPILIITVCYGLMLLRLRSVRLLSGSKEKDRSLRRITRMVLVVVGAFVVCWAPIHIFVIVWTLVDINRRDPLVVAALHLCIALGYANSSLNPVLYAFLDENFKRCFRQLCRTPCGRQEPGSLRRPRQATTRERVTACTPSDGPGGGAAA
Description: as §1, §2

δ1 receptors = assay type: binding; settings: guinea pig brain membranes
Description: Therefore, a better assessment of the δ subtype selectivity can be obtained from binding of brain membranes and from antagonism studies in mice. The binding of BNTX to guinea pig brain membranes was determined using the general method of L. L. Werling et al., J. Pharmacol. Exp. Ther., 233, 722 (1985), as modified by A. E. Takemori et al., J. Pharmacol. Exp. Ther., 246, 255 (1988). The radio-ligands employed were [^3 H]DPDPE ([D-Pen ^2, D-Pen^5 ] enkephalin) for δ1 receptors, [^3 H]DSLET([D-Ser^2 -Leu^5 ]enkephalin-Thr^6) for δ^2 receptors, [3H]DAMGO for μ receptors and U69593(trans-(+)-3,4-dichloro-N-methyl-N-[2-(1-pyrididinyl)cyclohexyl]benzeneacetamide) for κ receptors.

κ opioid receptor = molecular target: T3, κ opioid receptor (Mus musculus, UniProt P33534); assay: Mouse tail flick antinociception, antagonism of U50488H (κ agonist); assay type: in vivo; settings: BNTX 6.25 pmol/i.c.v./mouse
T3 construct: from tissue; host or cells: live mouse (BNTX i.c.v.)
T3 sequence (P33534 whole entry): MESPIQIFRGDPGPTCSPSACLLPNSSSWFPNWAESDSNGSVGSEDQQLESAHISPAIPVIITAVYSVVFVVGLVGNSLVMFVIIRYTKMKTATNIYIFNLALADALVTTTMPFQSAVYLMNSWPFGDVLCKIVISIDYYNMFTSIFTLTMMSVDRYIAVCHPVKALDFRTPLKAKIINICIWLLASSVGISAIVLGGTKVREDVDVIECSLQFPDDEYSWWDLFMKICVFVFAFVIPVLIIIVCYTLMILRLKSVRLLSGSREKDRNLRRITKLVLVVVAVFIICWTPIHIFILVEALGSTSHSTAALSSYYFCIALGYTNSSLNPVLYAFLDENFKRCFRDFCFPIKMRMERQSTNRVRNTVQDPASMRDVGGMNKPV
Description: as §1, §2

[1] = molecular target: T4, delta opioid receptor (δ; printed δ1 for DADLE in Table III) (Mus musculus, UniProt P32300); assay: Mouse vas deferens (MVD) smooth muscle, antagonism of DADLE; assay type: cell-based; settings: data of Table II, MVD/GPI
T4 construct: Both vasa deferentia were dissected out of mice; from tissue; host or cells: mouse vas deferens
T4 sequence (P32300 whole entry): as the sequence (P32300 whole entry) above
Description: This assay was performed according to the description by G. Henderson et al., Brit. J. Pharmacol., 46, 764 (1972). […] The organ bath was maintained at 37° C.
Concentration-response curves were obtained in the absence (control) and the presence of the antagonist are expressed as IC50 values. […] Therefore, a high IC50 ratio represents a correspondingly high degree of antagonism at a particular receptor. […] Therefore, a low Ke represents a correspondingly high degree of binding at a particular receptor.

ethanol drinking [2] = settings: in vivo; cited from earlier work
ethanol drinking [3] = settings: rats bred for high voluntary ethanol drinking; application Ser. No. 07/750,109; cited from earlier work
ethanol intake = settings: rat model of alcoholism; cited from earlier work
[4] = system: alcohol relapse in recovering alcoholics; settings: cited from earlier work

O=C1C(=Cc2ccccc2)C[C@@]2(O)[C@H]3Cc4ccc(O)c5c4[C@@]2(CCN3CC2CC2)[C@H]1O5 [BNTX, 7-Benzylidene-7-dehydronaltrexone]
shift of dose-response curve, morphine (μ opioid receptor; words): not shifted significantly | ED50 Ratio ("Potency Ratio"), DAMGO (μ) (μ opioid receptor; ED50 of DAMGO (so in the source) in presence of BNTX / ED50 of agonist): 0.88 | shift of dose-response curve, DSLET (δ2 opioid receptor; words): not shifted significantly | ED50 Ratio ("Potency Ratio"), DSLET (δ2) (δ2 opioid receptor; ED50 of DSLET in presence of BNTX / ED50 of agonist): 0.91 | selectivity (binding, words) (δ1 receptors): highly selective for δ1 receptor sites | shift of dose-response curve, U50488H (κ opioid receptor; words): not shifted significantly | ED50 Ratio ("Potency Ratio"), U50488H (κ) (κ opioid receptor; ED50 of U50488H in presence of BNTX / ED50 of agonist): 1.2 | selectivity (smooth muscle, words) [1]: δ-selective antagonist

C=CCN(CC=C)[C@@H](Cc1ccc(O)cc1)C(=O)NC(C)(C)C(=O)NC(C)(C)C(=O)N[C@@H](Cc1ccccc1)C(=O)N[C@@H](CC(C)C)C(=O)O [ICI 174864, N,N-diallyl-Tyr-Aib-Aib-Phe-Leu-OH] ({Tyr(Nα,Nα-allyl2)}-[Aib][Aib]FL-OH)
duration of action (ethanol drinking [2]): very short duration of action | ethanol drinking (ethanol drinking [2]): strongly inhibits ethanol drinking

Oc1ccc2c3c1O[C@H]1c4oc5ccccc5c4C[C@@]4(O)[C@@H](C2)N(CC2CC2)CC[C@]314 [NTB]
suppression of ethanol drinking / water intake (ethanol drinking [3]): unexpectedly prolonged suppression of ethanol drinking without altering water intake

Oc1ccc2c3c1O[C@H]1c4[nH]c5ccccc5c4C[C@@]4(O)[C@@H](C2)N(CC2CC2)CC[C@]314 [NTI]
suppression of ethanol drinking / water intake (ethanol drinking [3]): unexpectedly prolonged suppression of ethanol drinking without altering water intake

C=CCN1CC[C@]23c4c5ccc(O)c4O[C@H]2C(=O)CC[C@@]3(O)[C@H]1C5 [Naloxone, naloxone]
ethanol and water intake (ethanol intake): suppress ethanol but not water intake

O=C1CC[C@@]2(O)[C@H]3Cc4ccc(O)c5c4[C@@]2(CCN3CC2CC2)[C@H]1O5 [Naltrexone, naltrexone]
incidence of relapse in recovering alcoholics [4]: reduce the incidence of relapse in recovering alcoholics
